Legend:
[1] = tested on: Keratinocytes derived from human neonatal foreskin; assay: Test Example 2: inhibition of human keratinocyte proliferation ([3H] thymidine uptake); assay type: cell-based; conditions: relative value = [IC50 (mol/l) of 1α,25(OH)2vitamin D3]/[IC50 (mol/l) of each Compound]
Procedure: Keratinocytes derived from human neonatal foreskin (Clonetics) were inoculated in 96 well-plates (COSTAR 3595) at 2×10^3 cells/well. Active vitamin D3 (1α,25(OH)2D3) and Compounds 1 to 13 at various concentrations were added to respective wells and cultured at 2×10^3 cells/200 μl/well in KGM-2 medium for 3 days at 37° C. in 5% CO2 and 95% air. After adding [^3H] thymidine at 7.4 kBq/well, the cell culture was continued for further 1 day. After washing the wells with phosphate buffer free of calcium and magnesium (Dulbecco PBS(−), NISSUI, code 05913, pH 7.3 to 7.65) once, the cells were stripped using 0.25% […]. The [^3H] thymidine uptake of the cells was measured by a liquid scintillation counter (1450 microbeta, WALLAC). In the Table, the inhibition of human keratinocyte proliferation is expressed as follows: the relative value of each Compound with respect to active vitamin D3=[IC50 (mol/l) of 1α,25(OH)2vitamin D3]/[IC50 (mol/l) of each Compound]

[2] = Test Example 1: ionized calcium level in blood after single percutaneous application to dorsal skin of mice (ion selective electrode method); assay type: in vivo; conditions: Balb/c mice, dosage 1000 μg/kg, blood drawn two days after application, mean of 3 mice
Procedure: Active vitamin D3 (1α,25 (OH)2vitamin D3) dissolved in ethanol at the concentration of 125 μg/ml, Compounds 1 to 13 (the vitamin D derivatives obtained in the above Examples) dissolved in ethanol at the concentration of 500 μg/ml and ethanol alone (as control) were percutaneously applied once to the dorsal skin of respective 8-week-old male Balb/c mice (approximately 1.5×2.0 cm^2). The dosage was 2 ml/kg and each mouse received a necklace to prevent ingestion. On the next day, the application areas were cleaned and necklaces were removed from the mice. Two days after the application, blood was drawn from each mouse in order to measure the ionized calcium level in the blood by an ion selective electrode method. In this experiment, each group contained 3 mice. The ionized calcium levels in the Table indicate the mean values.

1α, 25(OH)2D3
Human keratinocyte proliferation inhibition (relative value) [1]: 1.0

C=C1C(=CC=C2CCCC3(C)C(COCCC(C)(C)O)=CCC23)CC(O)CC1O (stereo not drawn) [Compound 1, 1α,3β-dihydroxy-17-(3-hydroxy-3-methylbutoxymethyl)-9,10-secoandrosta-5,7,10(19),16-tetraene]
Ionized Ca level [2]: 1.52 mmol/L
Human keratinocyte proliferation inhibition (relative value) [1]: 0.6

C=C1C(=CC=C2CCCC3(C)C(COCCCC(O)(CC)CC)=CCC23)CC(O)CC1O (stereo not drawn) [Compound 2, 17-(4-ethyl-4-hydroxyhexyloxymethyl)-1α,3β-dihydroxy-9,10-secoandrosta-5,7,10(19),16-tetraene]
Ionized Ca level [2]: 2.12 mmol/L
Human keratinocyte proliferation inhibition (relative value) [1]: 1.9

C=C1C(=CC=C2CCCC3(C)C(COCCCCC(C)(C)O)=CCC23)CC(O)CC1O (stereo not drawn) [Compound 3, 1α,3β-dihydroxy-17-(5-hydroxy-5-methylhexyloxymethyl)-9,10-secoandrosta-5,7,10(19),16-tetraene]
Ionized Ca level [2]: 1.81 mmol/L
Human keratinocyte proliferation inhibition (relative value) [1]: 1.2

C=C1C(=CC=C2CCCC3(C)C(COCCCC(C)(C)O)=CCC23)CC(O)CC1O (stereo not drawn) [Compound 4, 1α,3β-dihydroxy-17-(4-hydroxy-4-methylpentyloxymethyl)-9,10-secoandrosta-5,7,10(19),16-tetraene]
Ionized Ca level [2]: 1.68 mmol/L
Human keratinocyte proliferation inhibition (relative value) [1]: 0.7

C=C1C(=CC=C2CCCC3(C)C(COCC#CC(C)(C)O)=CCC23)CC(O)CC1O (stereo not drawn) [Compound 5, 1α,3β-dihydroxy-17-(4-hydroxy-4-methyl-2-pentynyloxymethyl)-9,10-secoandrosta-5,7,10(19),16-tetraene]
Ionized Ca level [2]: 1.63 mmol/L
Human keratinocyte proliferation inhibition (relative value) [1]: 1.8

Source: patent US7074777B2, “Vitamin D derivatives” (Chugai Seiyaku Kabushiki Kaisha, priority 2000, dated 2006)
